Columns and labels:
[1] = biological target: T1, MAO-B (Rattus norvegicus, UniProt P19643); test: In vitro MAO activity assay, rat brain mitochondrial suspension, phenethylamine (PEA) as substrate; type: biochemical; conditions: 20 min preincubation, reaction time 10 min
T1 construct: en utilisant comme source d'enzyme une suspension mitochondriale du cerveau de rat; from tissue; host or cells: rat brain mitochondrial suspension
T1 sequence (P19643 1-520): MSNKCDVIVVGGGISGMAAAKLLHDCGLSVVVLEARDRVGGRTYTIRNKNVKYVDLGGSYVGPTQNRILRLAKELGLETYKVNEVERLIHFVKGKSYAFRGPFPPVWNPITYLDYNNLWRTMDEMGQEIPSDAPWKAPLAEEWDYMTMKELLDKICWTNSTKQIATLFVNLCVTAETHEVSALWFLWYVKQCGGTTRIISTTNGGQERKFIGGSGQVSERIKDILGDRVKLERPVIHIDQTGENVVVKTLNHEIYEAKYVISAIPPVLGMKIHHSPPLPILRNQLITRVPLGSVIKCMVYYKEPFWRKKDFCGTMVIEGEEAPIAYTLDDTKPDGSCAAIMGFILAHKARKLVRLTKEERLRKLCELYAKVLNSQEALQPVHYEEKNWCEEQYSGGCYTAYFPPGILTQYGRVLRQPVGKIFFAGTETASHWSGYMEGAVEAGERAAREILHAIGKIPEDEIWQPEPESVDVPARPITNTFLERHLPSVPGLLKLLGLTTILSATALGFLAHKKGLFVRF
Description: (§1) L'activité inhibitrice de la monoamine oxydase de ces composés a été mise en évidence par des mesures in vitro de la MAO.
(§2) Le dosage de l'activité de la MAO a été effectué en utilisant comme source d'enzyme une suspension mitochondriale du cerveau de rat. Le dosage standard consiste à préincuber l'enzyme pendant 20 minutes en absence, puis en présence des inhibiteurs. Les activités sont déterminées en utilisant la sérotonine (5 HT) et la phénéthylamine (PEA) comme substrats de la MAO-A et de la MAO-B, les temps de réaction étant de 40 minutes avec la 5 HT et de 10 minutes avec la PEA. Le mode opératoire mis en oeuvre est celui du protocole de P.C. Baker : Dev. Biol. 14, 267, 1966.
(§3) Les activités d'un certain nombre de composés selon l'invention vis-à-vis de la MAO-B et de la MAO-A sont données par leurs constantes d'inhibition Ki (MAO-B) et Ki(MAO-A) et sont rassemblées dans le tableau ci-après. TABLEAU

[2] = biological target: T2, MAO-A (Rattus norvegicus, UniProt P21396); test: In vitro MAO activity assay, rat brain mitochondrial suspension, serotonin (5 HT) as substrate; type: biochemical; conditions: 20 min preincubation, substrate 5 HT, reaction time 40 min
T2 construct: en utilisant comme source d'enzyme une suspension mitochondriale du cerveau de rat; from tissue; host or cells: rat brain mitochondrial suspension
T2 sequence (P21396 1-526): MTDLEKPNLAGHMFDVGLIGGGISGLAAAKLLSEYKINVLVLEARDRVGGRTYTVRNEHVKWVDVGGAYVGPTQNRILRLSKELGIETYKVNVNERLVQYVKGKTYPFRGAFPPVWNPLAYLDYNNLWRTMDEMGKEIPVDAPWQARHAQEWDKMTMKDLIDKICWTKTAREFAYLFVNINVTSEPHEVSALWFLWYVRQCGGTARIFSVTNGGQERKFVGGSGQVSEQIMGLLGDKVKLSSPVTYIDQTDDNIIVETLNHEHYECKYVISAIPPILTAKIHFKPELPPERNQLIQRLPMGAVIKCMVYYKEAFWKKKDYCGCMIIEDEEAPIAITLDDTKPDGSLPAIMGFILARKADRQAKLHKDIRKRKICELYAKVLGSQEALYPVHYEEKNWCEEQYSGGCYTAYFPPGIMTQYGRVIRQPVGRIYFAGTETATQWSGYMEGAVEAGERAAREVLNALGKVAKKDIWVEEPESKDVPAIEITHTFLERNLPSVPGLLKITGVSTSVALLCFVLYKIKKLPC
Description: as §1, §2, §3

Compound | Ki [1] | Ki(MAO-A) [2]
COCCn1nnc(-c2ccc(OCc3ccccc3)cc2)n1 [MD 230300, (benzyloxy-4 phényl)-5 méthoxyéthyl-2 2H tétrazole] | 0.0156 µM | inactif
COCCn1nnc(-c2ccc(OCc3ccc(Cl)cc3)cc2)n1 [MD 230305, [(chloro-4 benzyloxy)-4 phényl]-5 méthoxyéthyl-2 2H-tétrazole] | 0.184 µM | 
COCCn1nnc(-c2ccc(OCc3cccc(Cl)c3)cc2)n1 [MD 230324, [(chloro-3 benzyloxy)-4 phényl]-5 méthoxyéthyl-2 2H tétrazole] | 0.035 µM | 
COCCn1nc(-c2ccc(OCc3ccc(Cl)cc3)cc2)oc1=O [MD 230306, [(chloro-4 benzyloxy)-4 phényl]-5 méthoxyéthyl-3 3H oxadiazole-1,3,4 one-2] | 0.005 µM | 

— patent publication EP0502110B1, “(HETERO) 4-ARYLMETHOXY PHENYL DIAZOLE DERIVATIVES, METHOD FOR PREPARING SAME, AND THEIR THERAPEUTICAL APPLICATIONS” (SYNTHELABO, priority 1989, dated 1991)
